30 compounds from US11098032B2, “Pyran dervatives as CYP11A1 (cytochrome P450 monooxygenase 11A1) inhibitors” (ORION CORPORATION, priority 2016, dated 2021) can be followed below.

In general, IC50 refers to the concentration at which inhibition is half-maximal.

The target of this test is T1, CYP11A1 (Homo sapiens, UniProt P05108).
T1 construct: human H295R adrenocortical carcinoma cell line was used as source of enzyme; endogenous in cells; host or cells: H295R human adrenocortical carcinoma cells
T1 sequence (P05108 40-521): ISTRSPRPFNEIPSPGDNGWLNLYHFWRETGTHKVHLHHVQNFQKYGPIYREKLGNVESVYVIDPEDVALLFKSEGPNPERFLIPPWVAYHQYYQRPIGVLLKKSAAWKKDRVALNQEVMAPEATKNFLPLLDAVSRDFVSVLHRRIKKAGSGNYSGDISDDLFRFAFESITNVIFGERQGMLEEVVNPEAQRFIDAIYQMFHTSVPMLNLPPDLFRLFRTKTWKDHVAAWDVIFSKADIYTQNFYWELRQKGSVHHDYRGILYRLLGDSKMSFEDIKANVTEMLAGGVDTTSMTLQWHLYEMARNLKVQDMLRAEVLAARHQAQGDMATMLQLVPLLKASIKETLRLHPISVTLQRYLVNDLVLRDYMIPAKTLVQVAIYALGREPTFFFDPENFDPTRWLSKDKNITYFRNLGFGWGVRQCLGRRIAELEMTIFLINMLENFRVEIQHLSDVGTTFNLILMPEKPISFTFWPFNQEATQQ
The test can be described thus: CYP11A1 inhibition: modified isocaproic acid release assay (IARA) in H295R cells. The settings on record: human H295R adrenocortical carcinoma cells treated three days, 3 nM [24,25-3H]-labelled cholesterol, 1% DMSO, 10 concentrations in duplicates; read-out: IC50 of the test compounds on CYP11A1 inhibition. It counts as cell-based. As for the experimental part: The ability of the test compounds to inhibit conversion of cholesterole to pregnenolone and isocaproic acid was measured by modification of isocaproic acid release assay (IARA) described by Ruangwises et. al. (Biology of Reproduction 1991; 45(1):143-50) except that human H295R adrenocortical carcinoma cell line was used as source of enzyme and extraction was done with dextran-coated charcoal suspension (Isomaa, V. et al., Endocrinology 1982; 111(3):833-843). […] To determine the half maximal inhibitory concentration (IC50) of the test compounds on CYP11A1 inhibition, the cells were treated for three days with increasing concentrations of the test compounds in the presence of 3 nM [24,25-3H]-labelled cholesterol (American Radiolabelled Chemicals). The final DMSO concentration was 1%. Cell culture medium was extracted with dextran-coated charcoal suspension and the radiolabelled isocaproic acid was determined by mixing 100 μl of supernatant fraction in 200 μl of scintillation fluid (OptiPhase SuperMix, Perkin Elmer). Radioactivity was measured using a Microbeta scintillation counter (1450 MicroBeta Trilux, Wallac). All the test compounds were studied at 10 concentrations in duplicates.
For the compound `O=C(c1ccc(COc2coc(CN3Cc4ccccc4C3)cc2=O)c(F)c1)N1CCC1` [Compound 95, 5-((4-(Azetidine-1-carbonyl)-2-fluorobenzyl)oxy)-2-(isoindolin-2-ylmethyl)-4H-pyran-4-one], the IC50 was less than 0.15 µM.

`O=c1cc(CN2CCc3ccccc3C2)occ1OCc1ccc(C2(O)COC2)cc1` [Compound 117, 2-((3,4-Dihydroisoquinolin-2(1H)-yl)methyl)-5-((4-(3-hydroxyoxetan-3-yl)-benzyl)oxy)-4H-pyran-4-one]: the IC50 lay in the range of 0.301 to 2 µM.

Turning to `CC(C)(O)c1ccc(COc2coc(CN3Cc4ccccc4C3)cc2=O)cc1` [Compound 49, 5-((4-(2-Hydroxypropan-2-yl)benzyl)oxy)-2-(isoindolin-2-ylmethyl)-4H-pyran-4-one], the IC50 was less than 0.15 µM.

Consider `O=C(C1CC1)N1CCC(COc2coc(CN3Cc4ccccc4C3)cc2=O)CC1` [Compound 226, 5-((1-(Cyclopropanecarbonyl)piperidin-4-yl)methoxy)-2-(isoindolin-2-ylmethyl)-4H-pyran-4-one], for which the IC50 was less than 0.15 µM.

Regarding `CSc1ccc2c(c1)CN(Cc1cc(=O)c(OCC3CCN(S(C)(=O)=O)CC3)co1)C2` [Compound 208, 5-((1-(Methylsulfonyl)piperidin-4-yl)methoxy)-2-((5-(methylthio)isoindolin-2-yl)methyl)-4H-pyran-4-one], the IC50 was in the range of 0.15 to 0.3 µM.

With `O=c1cc(CN2Cc3ccccc3C2)occ1OCC1CCC(CN2CCCS2(=O)=O)CC1` (stereo not drawn) [Compound 176, 5-((4-((1,1-Dioxidoisothiazolidin-2-yl)methyl)cyclohexyl)methoxy)-2-(isoindolin-2-ylmethyl)-4H-pyran-4-one], the IC50 is less than 0.15 µM.

With `NC(=O)c1ccc(COc2coc(CN3Cc4ccccc4C3)cc2=O)cc1F` [Compound 171, 2-Fluoro-4-(((6-(isoindolin-2-ylmethyl)-4-oxo-4H-pyran-3-yl)oxy)methyl)-benzamide], the IC50 is 0.301 to 2 µM.

As for `CN(C)C(=O)c1ccc(COc2coc(CN3CCc4ccccc4C3)cc2=O)cc1` [Compound 119, 4-(((6-((3,4-Dihydroisoquinolin-2(1H)-yl)methyl)-4-oxo-4H-pyran-3-yl)oxy)-methyl)-N,N-dimethylbenzamide], the IC50 lay within 0.301 to 2 µM.

As to `O=c1cc(CN2Cc3ccccc3C2)occ1OCCCc1ccncc1` [Compound 214, 2-(Isoindolin-2-ylmethyl)-5-(3-(pyridin-4-yl)propoxy)-4H-pyran-4-one], the IC50 lay in the range of 0.15 to 0.3 µM.

Turning to `O=C(C1CCC(COc2coc(CN3Cc4ccccc4C3)cc2=O)CC1)N1CCC1` (stereo not drawn) [Compound 234, 5-((4-(Azetidine-1-carbonyl)cyclohexyl)methoxy)-2-(isoindolin-2-ylmethyl)-4H-pyran-4-one], the IC50 is less than 0.15 µM.

Turning to `CC(F)(F)C(=O)N1CCC(COc2coc(CN3Cc4ccccc4C3)cc2=O)CC1` [Compound 222, 5-((1-(2,2-Difluoropropanoyl)piperidin-4-yl)methoxy)-2-(isoindolin-2-ylmethyl)-4H-pyran-4-one], the IC50 is less than 0.15 µM.

Consider `CNC(=S)N1CCC(COc2coc(CN3Cc4ccccc4C3)cc2=O)CC1` [Compound 250, 4-(((6-(Isoindolin-2-ylmethyl)-4-oxo-4H-pyran-3-yl)oxy)methyl)-N-methyl-piperidine-1-carbothioamide], for which the IC50 was in the range of 0.15 to 0.3 µM.

Turning to `CS(=O)(=O)c1ccc(COc2coc(CN3Cc4ccccc4C3)cc2=O)c(C(F)(F)F)c1` [Compound 19, 2-(Isoindolin-2-ylmethyl)-5-((4-(methylsulfonyl)-2-(trifluoromethyl)benzyl)oxy)-4H-pyran-4-one], the IC50 lay in the range of 0.301 to 2 µM.

Regarding `CS(=O)(=O)c1ccc(COc2coc(CN3Cc4ccc(F)cc4C3)cc2=O)cc1` [Compound 63, 2-((5-Fluoroisoindolin-2-yl)methyl)-5-((4-(methylsulfonyl)benzyl)oxy)-4H-pyran-4-one], the IC50 fell in the range of 0.15 to 0.3 µM.

Take `CC(=O)OCC(C)(C)NC(=O)c1ccc(COc2coc(CN3Cc4ccccc4C3)cc2=O)cc1` [Compound 143, 2-(4-(((6-(Isoindolin-2-ylmethyl)-4-oxo-4H-pyran-3-yl)oxy)methyl)benzamido)-2-methylpropyl acetate]: the IC50 was in the range of 0.15 to 0.3 µM.

As for `CC(C)(C)NC(=O)c1ccc(COc2coc(CN3Cc4ccccc4C3)cc2=O)cc1` [Compound 131, N-(tert-Butyl)-4-(((6-(isoindolin-2-ylmethyl)-4-oxo-4H-pyran-3-yl)oxy)methyl)-benzamide], the IC50 was less than 0.15 µM.

Take `O=c1cc(CN2Cc3ccccc3C2)occ1OCc1ccc(-n2ccnn2)cc1` [Compound 107, 5-((4-(1H-1,2,3-triazol-1-yl)benzyl)oxy)-2-(isoindolin-2-ylmethyl)-4H-pyran-4-one]: the IC50 was in the range of 0.15 to 0.3 µM.

For `O=c1cc(CN2Cc3ccc(F)cc3C2)occ1OCC1CCN(S(=O)(=O)C2CC2)CC1` [Compound 190, 5-((1-(Cyclopropylsulfonyl)piperidin-4-yl)methoxy)-2-((5-fluoroisoindolin-2-yl)methyl)-4H-pyran-4-one], the IC50 is less than 0.15 µM.

For the compound `CCN(CC)S(=O)(=O)c1ccc(COc2coc(CN3Cc4ccccc4C3)cc2=O)cc1` [Compound 4, N,N-Diethyl-4-(((6-(isoindolin-2-ylmethyl)-4-oxo-4H-pyran-3-yl)oxy)methyl)-benzenesulfonamide], the IC50 fell in the range of 0.15 to 0.3 µM.

For the compound `NC(=O)c1ccc(COc2coc(CN3CCc4ccccc4C3)cc2=O)c(F)c1` [Compound 55, 4-(((6-((3,4-Dihydroisoquinolin-2(1H)-yl)methyl)-4-oxo-4H-pyran-3-yl)oxy)-methyl)-3-fluorobenzamide], the IC50 lay in the range of 0.301 to 2 µM.

Take `CC(=O)[C@H]1CC[C@H](COc2coc(CN3Cc4ccccc4C3)cc2=O)CC1` [Compound 244, 5-(((1r,4r)-4-Acetylcyclohexyl)methoxy)-2-(isoindolin-2-ylmethyl)-4H-pyran-4-one]: the IC50 is less than 0.15 µM.

On to `CN(C)C(=O)c1ccc(COc2coc(CN3CCc4cc(F)ccc4C3)cc2=O)cc1` [Compound 124, 4-(((6-((6-Fluoro-3,4-dihydroisoquinolin-2(1H)-yl)methyl)-4-oxo-4H-pyran-3-yl)oxy)methyl)-N,N-dimethylbenzamide], for which the IC50 lay within 0.15 to 0.3 µM.

Consider `O=c1cc(CN2Cc3ccccc3C2)occ1OCc1ccc(-c2ccccn2)cc1` [Compound 165, 2-(Isoindolin-2-ylmethyl)-5-((4-(pyridin-2-yl)benzyl)oxy)-4H-pyran-4-one], for which the IC50 is 0.15 to 0.3 µM.

With `CC(C)(C)C(=O)N1CCC(COc2coc(CN3Cc4ccccc4C3)cc2=O)CC1` [Compound 251, 2-(Isoindolin-2-ylmethyl)-5-((1-pivaloylpiperidin-4-yl)methoxy)-4H-pyran-4-one], the IC50 was less than 0.15 µM.

`CS(=O)(=O)N1CCC(F)(COc2coc(CN3Cc4ccccc4C3)cc2=O)CC1` [Compound 235, 5-((4-Fluoro-1-(methylsulfonyl)piperidin-4-yl)methoxy)-2-(isoindolin-2-yl-methyl)-4H-pyran-4-one]: the IC50 lay in the range of 0.15 to 0.3 µM.

As for `CS(=O)(=O)N1CCC(COc2coc(CN3Cc4cc5c(cc4C3)OCO5)cc2=O)CC1` [Compound 209, 2-((5,7-Dihydro-6H-[1,3]dioxolo[4,5-f]isoindol-6-yl)methyl)-5-((1-(methyl-sulfonyl)piperidin-4-yl)methoxy)-4H-pyran-4-one], the IC50 is 0.15 to 0.3 µM.

`CSc1ccc2c(c1)CN(Cc1cc(=O)c(OCc3ccc(S(C)(=O)=O)cc3)co1)C2` [Compound 280, 5-((4-(Methylsulfonyl)benzyl)oxy)-2-((5-(methylthio)isoindolin-2-yl)methyl)-4H-pyran-4-one]: the IC50 is 0.15 to 0.3 µM.

On to `CN(C)C(=O)N1CCC(COc2coc(CN3Cc4ccc(F)cc4C3)cc2=O)CC1` [Compound 181, 4-(((6-((5-Fluoroisoindolin-2-yl)methyl)-4-oxo-4H-pyran-3-yl)oxy)methyl)-N,N-dimethylpiperidine-1-carboxamide], for which the IC50 lay within 0.15 to 0.3 µM.

On to `CN(C)C(=O)c1ccc(COc2coc(CN3Cc4cc(F)c(F)cc4C3)cc2=O)cc1` [Compound 82a, 4-(((6-((5,6-Difluoroisoindolin-2-yl)methyl)-4-oxo-4H-pyran-3-yl)oxy)methyl)-N,N-dimethylbenzamide], for which the IC50 lay in the range of 0.15 to 0.3 µM.

In the case of `O=c1cc(CN2Cc3ccccc3C2)occ1OCc1ccc(C2(O)CCC2)cc1` [Compound 111, 5-((4-(1-Hydroxycyclobutyl)benzyl)oxy)-2-(isoindolin-2-ylmethyl)-4H-pyran-4-one], the IC50 was less than 0.15 µM.
